# Data taken from patent US7759367B2, “Pharmaceutical compositions and their uses” (Eisai R&D Management Co., Ltd., priority 2001, dated 2010).
# Columns and labels:
# [1] = test system: AMPA receptor; details: primary culture of rat embryo cerebral cortex nerve cells; Fura2-AM; 2 μM AMPA; 1 μM MK-801;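 also: neurons cultured at least 8 to 10 days atop an astrocyte layer in 96-well plates, calcium entry read as the change in Fura2 fluorescence ratio at 340/380 nm excitation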
# Procedure: Cerebral cortex was cut out from the brain of rat of gestational 18 days and treated with trypsin and DNase to disperse the cells. The cells were flown by MEM containing 10% of serum, sown in a culture bottle and astrocytes were proliferated. The astrocytes were re-dispersed by trypsin and sown in a 96-well plate. After incubation for one week, it was confirmed that the astrocytes covered all over the bottom and then the nerve cells of cerebral cortex which was dispersed by the above method were sown thereupon. After incubation for 24 hours, the medium was changed, the incubation was carried out for one week and, after that, the medium was changed to that containing 1 μM of MK-801. Nerve cells which were incubated for not shorter than 8 to 10 days were used.
# Calcium influx into the cells was measured using Fura2-AM which was a calcium-sensitive fluorescent dye. It was treated in a medium containing Fura2-AM for 1 hour, incorporated into the cells, exchanged to a Tyrode solution containing 1 μM MK-801 and stimulation was carried out using 2 μM AMPA. Change in the amount of calcium flown into the cells were measured as the change in the fluorescent intensity at the exciting wave length of 340/380 nm.
# [2] = test system: male mice of ddy strain; assay: Anticonvulsant action induced by AMPA (Test Example 2); type: in vivo; details: 25 mg/kg orally, AMPA 2 nmole/5 μl/minute/mouse into lateral ventricle 30 minutes or 1 hour after dosing
# Procedure: A test compound was suspended in a 0.5% methyl cellulose solution or in sesame oil and was orally administered (25 mg/kg) to male mice of ddy strain. After 30 minutes or 1 hour from the oral administration, AMPA was continuously injected (2 nmole/5 μl/minute/mouse) into lateral ventricle to induce the convulsions. The effect was judged by a time-extending action until the convulsion takes place by a continuous injection of AMPA.
# [3] = test system: Female Lewis rats; assay: Experimental autoimmune encephalomyelitis model (Test Example 10); type: in vivo, rat; details: p.o. 5, 10 and 20 mg/kg, 10-16 dpi
# Procedure: Female Lewis rats (205±10 g) obtained from Charles River, Kent UK, were housed in pairs under environmentally controlled conditions (6:00a.m.-6:00p.m. light/dark cycle; 22-24° C.; 45-55% humidity) and allowed free access to food and water. Experimental groups consisted of 9-12 animals. Rats were immunised in each hind foot with 20-50 μl of inoculum containing 50 μg guinea pig myelin basic protein (MBP; final concentration 2 mg/ml), emulsified in Freund's complete adjuvant (CFA; Sigma, UK) containing Mycobacterium tuberculosis H37Ra (final concentration 5.5 mg/ml; Difco Laboratories, UK). Animals were weighed and monitored daily and clinical disease scored as (0) no clinical signs; (1) flaccid tail and weight loss; (2) hind limb hypotonia with further weight loss; (3) complete hind limb paralysis; (4) paraplegia and (5) death. […] During the period of compound administration (10-16 days post immunisation; dpi) animals were scored 15 h after injection of vehicle or compound to avoid any acute effect of treatment on disease score. Compounds were dissolved/suspended in 0.5% methyl cellulose using a hand held Polytron homogeniser (PT1200; 2 min). Rats were dosed p.o. with either methyl cellulose vehicle (2.5 ml/kg) or compound at 5, 10 and 20 mg/kg.
# [4] = test system: Lewis rats; assay: Acute EAE in Lewis rats: Example 7 alone and combined with interferon-β (In Vivo Example 1); details: Lewis rat acute EAE, Example 7 10 mg/kg p.o., interferon-β 1×10^6 Units/rat s.c., once daily 7-16 dpi
# Procedure: Female Lewis rats (200+10 g) obtained from Charles River, Kent, UK, were housed in pairs under environmentally controlled conditions (6:00 a.m.-6:00 p.m. light/dark cycle; 22-24° C.; 45-55% humidity) and allowed free access to food and water. Experimental groups consisted of 8 animals.
# Rats were immunised in each hind foot with 15 μl of inoculum containing […] guinea pig myelin basic protein (MBP, prepared by the method of Dunkley and Carnegie (1974); final concentration 2 mg/ml), emulsified in Freund's complete adjuvant (CFA; Sigma, UK) containing Mycobacterium tuberculosis H37Ra (final concentration 5.5 mg/ml; Difco Laboratories, UK).
# Animals were weighed and monitored daily and clinical disease scored as (0) no clinical signs; (1) flaccid tail and weight loss; (2) hind limb hypotonia with further weight loss; (3) complete hind limb paralysis; (4) paraplegia and (5) death. […] During the period of compound administration (7-16 days post immunisation; dpi) animals were scored 15 h after injection of vehicle, compound of example 7 or interferon-β to avoid any acute effect of treatment on disease score.
# 3-(2-Cyanophenyl)-1-phenyl-5-(2-pyridyl)-1,2-dihydropyridin-2-one; (example 7) was suspended in 0.5% methyl cellulose (MC) solution to obtain a compound concentration of 4 mg/ml. Interferon-β was dissolved in PBS to obtain a compound concentration of 5×10^6 Units/ml. Rats were dosed once daily (9 a.m.) on days 7 to 16 post immunisation with either vehicle (methyl cellulose p.o. and PBS s.c.), the compound alone in the dose of 10 mg/kg (p.o. plus vehicle PBS s.c), interferon-β alone in the dose of 1×10^6 Units/rat (s.c. plus methyl cellulose p.o.) or example 7 in the dose of 10 mg/kg (p.o) combined with interferon-β in the dose of 1×10^6 Units/rat (s.c.).
structure (smiles),measurement,setting,value
"N#Cc1ccccc1-c1cc(-c2ccccn2)cn(-c2ccccc2)c1=O [Example 7, 3-(2-Cyanophenyl)-1-phenyl-5-(2-pyridyl)-1,2-dihydropyridin-2-one]",IC50,[1],100 nM
same,Anticonvulsant action (time-extending action until convulsion by continuous AMPA injection),[2],significant anticonvulsant action
same,Effect on EAE vs vehicle-administered group,[3],superior effect to the vehicle-administered group
same,Duration (days),"[4]; mean and range, n=8",3.0 (0-4) days
same,Onset (d.p.i.),"[4]; mean and range, n=8 (n=1 for the combination)",11.8 (11-15) d.p.i.
same,"Effect on disease progression (paralysis, disease score, onset, duration) during EAE, in words",[4]; n=8/group,"significantly delayed disease onset, shortened disease duration and reduced peak and cumulative disease score"
same,Peak Disease Score,"[4]; clinical score 0-5, mean and range, n=8",1.8 (0-3)
same,Cumulative Disease Score,"[4]; summation of individual daily disease scores, mean and range, n=8",4.8 (0-10)
same,Weight Loss (%),"[4]; weight on 18 dpi as percent of maximum weight before disease onset, mean and range, n=8",17 (10-23) %
